Results from patent US20220175766A1, “COMPOSITIONS AND METHODS OF TREATMENT” (GB004, Inc., priority 2019, published 2022).
Where two headings read alike, the source gives them in different places.

Test: Phase 1a multiple ascending dose study (oral solution): plasma pharmacokinetics
Format: in vivo, human
Conditions: human, plasma, oral; for concentration at 0.5 h: Hour 0.5; for concentration at 0.5 h / concentration at 1 h / concentration at 2 h / concentration at 3 h / concentration at 4 h / concentration at 6 h / concentration at 8 h / concentration at 12 h / concentration at 16 h / concentration at 24 h: read-out: Compound 1 concentration, Conc (SD); for concentration at 1 h: Hour 1; for concentration at 2 h: Hour 2; for concentration at 3 h: Hour 3; for concentration at 4 h: Hour 4; for concentration at 6 h: Hour 6; for concentration at 8 h: Hour 8; for concentration at 12 h: Hour 12; for concentration at 16 h: Hour 16; for concentration at 24 h: Hour 24; for AUC(0-t): read-out: AUC(0-t), mean; for AUC: read-out: AUC(0-τ), mean (SD); for Tmax: read-out: Tmax, median (range)
Description: Compound 1 was administered as the HCl-salt (prepared analogously to Example 2.1).
The secondary objective was to characterize the multiple dose pharmacokinetic (PK) parameters of Compound 1, after ascending doses. Secondary endpoints included determination of PK parameters in plasma and urine, fecal excretion and assessment of colonic biopsy samples.
Blood samples were collected at the following time points relative to dose administration on Day 1 and Day 7: pre-dose; 0.5, 1, 2, 3, 4, 6, 8, 12, 16 and 24 hours post dose. Analysis and concentration determinations were performed using a liquid chromatography-mass spectrometry and liquid chromatography-tandem mass spectrometry (LC/MS/MS) method.

[1] = 120 mg, Cohort 2, 120 mg once daily, Day 7
[2] = 120 mg, Cohort 2, 120 mg, Day 1
[3] = 120 mg, Cohort 4, 120 mg once daily, Day 7
[4] = 120 mg, Cohort 4, 120 mg, Day 1
[5] = 240 mg, Cohort 3, 240 mg once daily, Day 7
[6] = 240 mg, Cohort 3, 240 mg, Day 1

CC(C)(C)OC(=O)N1CCN(Cc2ccn(Cc3ccc(Cl)cc3)c(=O)c2O)CC1 [Compound 1, tert-butyl 4-((1-(4-chlorobenzyl)-3-hydroxy-2-oxo-1,2-dihydropyridin-4-yl)methyl)piperazine-1-carboxylate]
Cmax (60 mg, Cohort 5, 60 mg, Day 1, read-out: Cmax, mean (SD)): 5.06 ng/mL
concentration at 0.5 h [1]: 11.1 ng/mL
concentration at 1 h [1]: 7.7 ng/mL
concentration at 2 h [1]: 4.5 ng/mL
concentration at 3 h [1]: 3.19 ng/mL
concentration at 4 h [1]: 1.6 ng/mL
concentration at 6 h [1]: 2.04 ng/mL
concentration at 8 h [1]: 2.26 ng/mL
concentration at 12 h [1]: 1.41 ng/mL
concentration at 16 h [1]: 1.39 ng/mL
concentration at 24 h [1]: 0 ng/mL
AUC(0-t) [1]: 48.2 ng·h/mL
Cmax (120 mg, Cohort 2, 120 mg once daily, Day 7, read-out: Cmax, mean): 11.4 ng/mL
concentration at 0.5 h [2]: 9.54 ng/mL
concentration at 1 h [2]: 6.08 ng/mL
concentration at 3 h [2]: 1.95 ng/mL
concentration at 4 h [2]: 0 ng/mL
concentration at 6 h [2]: 0 ng/mL
concentration at 8 h [2]: 0 ng/mL
concentration at 12 h [2]: 0 ng/mL
concentration at 16 h [2]: 0 ng/mL
concentration at 24 h [2]: 0 ng/mL
AUC [2]: 27.9 ng·h/mL
Cmax (120 mg, Cohort 2, 120 mg, Day 1, read-out: Cmax, mean (SD)): 9.54 ng/mL
concentration at 0.5 h [3]: 15.6 ng/mL
concentration at 1 h [3]: 9.34 ng/mL
concentration at 2 h [3]: 5.32 ng/mL
concentration at 3 h [3]: 3.69 ng/mL
concentration at 4 h [3]: 2.98 ng/mL
concentration at 6 h [3]: 3.3 ng/mL
concentration at 8 h [3]: 3.03 ng/mL
concentration at 12 h [3]: 2.59 ng/mL
concentration at 16 h [3]: 2.26 ng/mL
concentration at 24 h [3]: 1.92 ng/mL
AUC(0-t) [3]: 75.8 ng·h/mL
Cmax (120 mg, Cohort 4, 120 mg once daily, Day 7, read-out: Cmax, mean): 15.6 ng/mL
concentration at 0.5 h [4]: 11.9 ng/mL
concentration at 1 h [4]: 8.03 ng/mL
concentration at 3 h [4]: 2.68 ng/mL
concentration at 4 h [4]: 1.48 ng/mL
concentration at 6 h [4]: 1.14 ng/mL
concentration at 8 h [4]: 0 ng/mL
concentration at 12 h [4]: 0 ng/mL
concentration at 16 h [4]: 0 ng/mL
concentration at 24 h [4]: 0 ng/mL
AUC [4]: 38.1 ng·h/mL
Cmax (120 mg, Cohort 4, 120 mg, Day 1, read-out: Cmax, mean (SD)): 12 ng/mL
concentration at 0.5 h [5]: 28.5 ng/mL
concentration at 1 h [5]: 20.5 ng/mL
concentration at 2 h [5]: 10.3 ng/mL
concentration at 3 h [5]: 7.61 ng/mL
concentration at 4 h [5]: 6.99 ng/mL
concentration at 6 h [5]: 6.8 ng/mL
concentration at 8 h [5]: 6.44 ng/mL
concentration at 12 h [5]: 4.66 ng/mL
concentration at 16 h [5]: 3.27 ng/mL
concentration at 24 h [5]: 2.53 ng/mL
AUC(0-t) [5]: 139 ng·h/mL
Cmax (240 mg, Cohort 3, 240 mg once daily, Day 7, read-out: Cmax, mean): 28.8 ng/mL
concentration at 0.5 h [6]: 25.7 ng/mL
concentration at 1 h [6]: 15 ng/mL
concentration at 3 h [6]: 5.97 ng/mL
concentration at 4 h [6]: 4.12 ng/mL
concentration at 6 h [6]: 3.39 ng/mL
concentration at 8 h [6]: 3.02 ng/mL
concentration at 12 h [6]: 3.13 ng/mL
concentration at 16 h [6]: 2.25 ng/mL
concentration at 24 h [6]: 1.35 ng/mL
AUC [6]: 91.5 ng·h/mL
Cmax (240 mg, Cohort 3, 240 mg, Day 1, read-out: Cmax, mean (SD)): 25.7 ng/mL
Tmax (Cohort 2, 120 mg, Day 1): 30 min
Tmax (Cohort 3, 240 mg, Day 1): 30 min
Tmax (Cohort 5, 60 mg, Day 1): 30 min
